Here are results for one compound from patent US20260055126A1, “SMALL MOLECULE COMPOUNDS WITH PHOSPHORYLATED ARYL STRUCTURES AND USE THEREOF” (HANGZHOU PHECDAMED CO., LTD., priority 2022, published 2026).

Each structure is given as a SMILES string.

The target of series [1] is recombinant TEAD1 protein central pocket (Homo sapiens (Human), UniProt P28347). The experiment in a line: Competitive thiol binding assay (CPM assay), TEAD1. As to conditions: 150 nM recombinant TEAD protein, 150 nM CPM. As for the experimental part:
Diluting the tested compound in gradient to 5 uL with buffer (25 mM HEPES, 150 mM NaCl, pH6.5), then adding 5 μL of the newly prepared 0.45 uM recombinant TEAD protein solution, and incubating at room temperature for 10 minutes. […] After shaking the plate at room temperature for 1 hour, measuring the fluorescence intensity (Ex/Em: 380/470 nm).

Series [2] in a line: Mouse plasma pharmacokinetic test. It counts as in vivo, CD-1 mice. The source says:
In this example, different compounds are used to perform a mouse pharmacokinetic experiment, and the specific steps are as follows: Animal information: CD-1 mice, male, about 20 g, purchase from Beijing Weitonglihua Experimental Animal Technology Co., Ltd.
Animal dietary status: Animals are not fasted before administration and allowed to drink water freely.
Compound preparation method: for intragastric administration (IG)(G1 group), preparing with 0.5% CMC-Na, and for intravenous injection(IV) (G2 group), preparing 5% DMSO+30% PEG400+65% water. […]
Sampling time points of G1 group: 8 points in total, namely 10 min, 30 min, 1 h, 2 h, 4 h, 6 h, 8 h and 24 h after administration, among them, animals G1M01-G1M03 are sampled at 3 time points, namely 10 min, 1 h and 6 h; animals G1M04-G1M06 are sampled at 3 time points, namely 30 min, 2 h and 8 h; animals G1M07-G1M09 are sampled at 2 time points, namely 4 h and 24 h.
Sampling time points of G2 group: 9 points in total, namely 5 min, 10 min, 30 min, 1 h, 2 h, 4 h, 6 h, 8 h, 24 h after administration. It is recommended that animals G2M01-G2M03 are sampled at 3 time points, namely 5 min, 1 h, and 6 h; animals G2M04-G2M06 are sampled at 3 time points, namely 10 min, 2 h, and 8 h; animals G2M07-G2M09 are sampled at 3 time points, namely 30 min, 4 h, and 24 h.
Sample collection: On the day of the experiment, collecting approximately 0.1 mL of whole blood samples at each preset time point and placing in EDTA-K2 anticoagulant tubes.
Sample processing: Within 30 minutes after whole blood sample collection, centrifuging at 4° C., 12,000 rpm for 5 minutes to separate plasma, collecting the upper plasma sample into a sample tube, and freezing the plasma sample in a −10˜−30° C. refrigerator within 30 minutes and transferring to a −60˜−90° C. refrigerator within 24 hours.
Sample testing and data processing: LC/MS/MS testing, WinNonlin for fitting and pharmacokinetic parameter calculation.

For series [3], the target named is recombinant TEAD2 protein (218-447, Uniprot ID: Q15562) (Homo sapiens (Human), UniProt Q15562). Briefly: Thermal shift assay (protein melting point curve), TEAD2. To be noted: 10 μM TEAD protein, 50 μM test compound. It counts as binding.
recombinant TEAD2 protein (218-447, Uniprot ID: Q15562), sequence (Q15562 218-447): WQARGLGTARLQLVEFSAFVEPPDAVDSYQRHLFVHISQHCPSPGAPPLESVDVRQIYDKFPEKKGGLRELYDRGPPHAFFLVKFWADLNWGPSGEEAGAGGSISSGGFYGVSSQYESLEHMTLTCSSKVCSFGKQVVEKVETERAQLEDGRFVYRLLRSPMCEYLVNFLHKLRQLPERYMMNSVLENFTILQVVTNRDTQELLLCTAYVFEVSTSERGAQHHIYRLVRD
Series [4] concerns the target recombinant TEAD4 protein (217-434, Uniprot ID: Q15561) (Homo sapiens (Human), UniProt Q15561). The experiment in a line: Thermal shift assay (protein melting point curve), TEAD4. As to conditions: 10 μM TEAD protein, 50 μM test compound. The series is classed as binding.
Series [5] can be described thus: In vitro liver microsome stability, rat. It counts as in vitro ADME. To be noted: rat liver microsomes. As for the experimental part: (§1) Testosterone is selected as the positive reference compound. The specific method is as follows:
(§2) Preparing 0.1MK3 PO4 (pH 7.4) buffer and 3×NADPH stock solution (6 mM, 5 mg/mL), and preheating in a 37° C. water bath; preparing spiking solution of tested compound and control compound: adding 5 μL compound stock solution (10 mM) to 95 μL acetonitrile; preparing 1.5 μM spiking solution in microsomes (0.75 mg/mL): add 1.5 μL spiking solution and 18.75 μL liver microsome solution (20 mg/mL) to 479.75 μL K3PO4 buffer; taking 30 μL spiking solution in microsomes and adding it to the multiwell plate, and incubating at 37° C. for 5 min; adding 15 μL of NADPH stock solution to each well, starting to react, and timing; adding 150 μL of acetonitrile solution containing IS at 0 min, 5 min, 15 min, 30 min, 45 min and 60 min respectively to terminate the reaction; after 10 min of oscillation, centrifuging the reaction at 6000 rpm for 15 min; taking 80 μL of supernatant from each well for LC/MS detection and calculating Ti/2.
(§3) Liver microsomes of mice, rats, dogs, and human used in the experiment are purchased from Xenotech.
(In general: Liver microsomes are vesicles of endoplasmic reticulum, rich in cytochrome P450 enzymes.)

Series [6] concerns recombinant TEAD1 protein (194-411, Uniprot ID: P28347). The experiment in a line: Thermal shift assay (protein melting point curve), TEAD1. It counts as binding. On the set-up: key to the marks not given beside the values. To be noted: 10 μM TEAD protein, 50 μM test compound.
Series [7] in a line: In vitro liver microsome stability, human. It counts as in vitro ADME. As to conditions: human liver microsomes. As to the method: as §1, §2, §3

recombinant TEAD4 protein (217-434, Uniprot ID: Q15561), sequence (Q15561 217-434): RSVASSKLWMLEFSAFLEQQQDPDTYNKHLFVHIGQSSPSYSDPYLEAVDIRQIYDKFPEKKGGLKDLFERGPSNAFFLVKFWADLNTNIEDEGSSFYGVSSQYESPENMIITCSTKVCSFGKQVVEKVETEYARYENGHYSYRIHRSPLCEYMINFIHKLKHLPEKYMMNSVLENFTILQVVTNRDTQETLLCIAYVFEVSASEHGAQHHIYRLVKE
recombinant TEAD1 protein central pocket, sequence (P28347 whole entry): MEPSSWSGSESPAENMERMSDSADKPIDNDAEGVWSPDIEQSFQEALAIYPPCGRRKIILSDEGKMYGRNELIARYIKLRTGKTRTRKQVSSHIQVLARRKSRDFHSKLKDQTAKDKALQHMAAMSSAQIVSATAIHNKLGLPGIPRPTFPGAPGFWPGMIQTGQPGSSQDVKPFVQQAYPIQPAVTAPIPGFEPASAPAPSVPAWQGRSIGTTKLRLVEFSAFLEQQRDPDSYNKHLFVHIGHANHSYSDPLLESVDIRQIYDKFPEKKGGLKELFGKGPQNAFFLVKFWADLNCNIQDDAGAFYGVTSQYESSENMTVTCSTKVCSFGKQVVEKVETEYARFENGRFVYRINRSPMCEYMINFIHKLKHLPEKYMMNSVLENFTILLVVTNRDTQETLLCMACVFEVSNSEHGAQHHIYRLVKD

As for `CP(C)(=O)c1ccc(NCc2ccc(C(F)(F)F)cc2)c(-c2nccc(OC3COC3)n2)c1` [Compound 17], the IC50 (commonly the midpoint of a concentration-inhibition curve) in series [1] stood at 290 nM. This compound gave a F % in series [2] (CD-1 mice, IG 10 mg/kg vs IV 1 mg/kg) of 51.9%. In series [2] (CD-1 mice, single IG 10 mg/kg), the AUC0-t is 4662 ng·h/mL, the “AUC0-∞” value stood at 5688 ng·h/mL, the maximum concentration (Cmax) (usually the maximum level reached in the sampled fluid or tissue) came to 1477 ng/mL and the MRT0-t was 2.84 h. Also, in series [2] (CD-1 mice, single IG 10 mg/kg), the “MRT0-∞” value was 4.66 h; the Tmax (in general, the time from dosing to the highest level) worked out at 30 min; the t1/2 is 3.46 h. Also, in series [2] (CD-1 mice, single IV 1 mg/kg), the AUC0-t is 899 ng·h/mL, the “AUC0-∞” value was 924 ng·h/mL, the CL was 1.082 L/h/kg and the Cmax is reported as 598 ng/mL. Moreover, in series [2] (CD-1 mice, single IV 1 mg/kg), the MRT0-t is on record as 1.55 h; the “MRT0-∞” value stood at 1.80 h; the volume of distribution (Vss) (in general, a proportionality between amount in the body and measured concentration, not a real space) was found to be 1.947 L/kg; the t1/2 was determined as 1.94 h. Moreover, the “pharmacokinetic properties in mice” value in series [2] (mice) is on record as “good pharmacokinetic properties”. In addition, the “Δ T m (TEAD2)” value in series [3] is recorded as “++”. Also, the “Δ T m (TEAD4)” value in series [4] is given as “++”. The same compound came in with a rat half-life in series [5] of 48.0 min. The “Δ T m (TEAD1)” value in series [6] is reported as “++++”. This compound showed a human half-life in series [7] of 107 min.
